Source: patent publication EP3319959B1, “HETERO-HALO INHIBITORS OF HISTONE DEACETYLASE” (Alkermes, Inc., priority 2015, dated 2017)

Key:
[1] = tested on: SH-SY5Y cells; experiment: Cell assay in SH-SY5Y cells with HDAC-Glo 2 reagent; format: cell-based; settings: Homo sapiens, 5 h, five hours at 37°C, CI-994 at 100 uM defined as 100% inhibition
Description: SH-SY5Y cells (Sigma) were cultured in Eagle's Modified Essential Medium supplemented with 10% fetal bovine serum and pen/strep. Twenty-four hours prior to compound dosing 20 uL of cells were plated in white 384 well plates at a density of 1,500 cells/well. Compounds were serially diluted in neat DMSO and then diluted 1:100 v/v into media without FBS and mixed. Media was removed from the plated cells and the diluted compounds in serum free media (1% v/v final DMSO) were added and incubated at 37°C for five hours. Ten uL of HDAC-Glo 2 reagent with 0.1% Triton X-100 was then added, the plate was mixed and allowed to develop at room temperature for 100 minutes. Plates were then read with a Spectramax LMax luminometer employing a 0.4s integration time. Dose response curves were constructed with normalized data where CI-994 at 100 uM was defined as 100% inhibition and DMSO alone as 0% inhibition. Table 5. IC50 and EC50 Values for Exemplary Compounds Useful in the Invention

[2] = tested on: recombinant human HDACs; experiment: HDAC enzymatic assay (LabChip capillary electrophoresis); format: biochemical; settings: 5 nM HDAC enzyme, 1 uM substrate, 5 hours pre-incubation, 17 hours reaction at 25°C; isoform not given
Description: All recombinant human HDACs were purchased from BPS Bioscience. The substrate, FAM-TSRHK(AC)KL-CONH, was synthesized at NanoSyn. Final assay reactions contained 100 mM HEPES (pH 7.5), 50 mM KCl, 0.1% BSA, 0.01% Triton X-100, 1% DMSO, 1 uM substrate and 5 nM HDAC enzyme. Enzyme and compounds were pre-incubated at 25°C for 5 hours and reactions were initiated by addition of substrate. 10 uL reactions were incubated for 17 hours at 25°C and terminated by the addition of 40 uL of buffer containing 100 mM HEPES (pH 7.5), 0.1% BSA, 0.01% Triton X-100 and 0.05% SDS. Substrate and product peptides present in each sample were separated electrophoretically using the LabChip 3000 capillary electrophoresis instrument. Change in the relative fluorescence intensity of the substrate and product peaks reflects enzyme activity. Reaction progress was determined as the product to sum ratio (PSR): P/(S+P), where P is the peak height of the product peptide and S is the peak height of the substrate peptide. Reactions were performed in duplicate at 12 concentrations, (3X serial dilutions starting at 30 uM). IC50 values were calculated using a 4 Parameter Logistic Model.

Compound	EC50 [1] [nM]	IC50 [2] [nM]
CN1CC=C(c2cc3c(cn2)CN(C(=O)Nc2nc(-c4ccc(F)cc4)ccc2N)C3)CC1 [Compound 148]	500 to 5000	100 to 500
CN(C)Cc1ccc2c(c1)CN(C(=O)Nc1nc(-c3ccc(F)cc3)ccc1N)C2 [Compound 371]	500 to 5000	100 to 500
CN(C)Cc1cc2c(cn1)CN(C(=O)Nc1nc(-c3ccc(F)cc3)ccc1N)C2 [Compound 162]	100 to 500	100 to 500
CN1CC(CN2C[C@@H]3[C@H](C2)[C@H]3C(=O)Nc2nc(-c3ccc(F)cc3)ccc2N)C1 [Compound 268]	> 5000	> 5000
CN1CCC(c2cc3c(cn2)CN(C(=O)Nc2nc(-c4ccc(F)cc4)ccc2N)C3)CC1 [Compound 149]	100 to 500	100 to 500
COCc1cc2c(cn1)CN(C(=O)Nc1nc(-c3ccc(F)cc3)ccc1N)C2 [Compound 243]	500 to 5000	100 to 500
Nc1ccc(-c2ccc(F)cc2)nc1NC(=O)N1Cc2cnc(CN3CC(F)(F)C3)cc2C1 [Compound 266]	500 to 5000	500 to 5000
CN1CCC(c2cnc3c(c2)CN(C(=O)Nc2nc(-c4cccs4)ccc2N)C3)CC1 [Compound 250]	100 to 500	100 to 500
Nc1ccc(-c2cccs2)nc1NC(=O)N1Cc2cc(CN3CCCC3)cnc2C1 [Compound 144]	100 to 500	100 to 500
Nc1ccc(-c2ccc(F)cc2)nc1NC(=O)N1Cc2cc(CN3CCC(F)(F)C3)cnc2C1 [Compound 273]	100 to 500	100 to 500
CN1CCC(c2cnc3c(c2)CN(C(=O)Nc2nc(-c4ccc(F)cc4)ccc2N)C3)CC1 [Compound 252]	100 to 500	100 to 500
CN(C)Cc1cnc2c(c1)CN(C(=O)Nc1nc(-c3cccnc3)ccc1N)C2 [Compound 161]	100 to 500	100 to 500
CN(C)Cc1cnc2c(c1)CN(C(=O)Nc1nc(-c3cccs3)ccc1N)C2 [Compound 145]	100 to 500	100 to 500
CN1CC=C(c2cnc3c(c2)CN(C(=O)Nc2nc(-c4ccc(F)cc4)ccc2N)C3)CC1 [Compound 253]	100 to 500	100 to 500
CN1CCc2sc(C(=O)Nc3nc(-c4ccco4)ccc3N)nc2C1 [Compound 163]	100 to 500	100 to 500
CN1CC=C(c2cnc3c(c2)CN(C(=O)Nc2nc(-c4cccs4)ccc2N)C3)CC1 [Compound 251]	100 to 500	100 to 500
Nc1ccc(-c2ccc(F)cc2)nc1NC(=O)N1Cc2ccc(CO)cc2C1 [Compound 366]	500 to 5000	100 to 500
CN1CCN(Cc2ccc3c(c2)CN(C(=O)Nc2nc(-c4ccc(F)cc4)ccc2N)C3)CC1 [Compound 367]	500 to 5000	100 to 500
CN(C)Cc1ccc(C2CN(C(=O)Nc3nc(-c4ccc(F)cc4)ccc3N)C2)cc1 [Compound 146]	500 to 5000	100 to 500

Compound	EC50 [1] [nM]	IC50 [2] [nM]
CN1CCC(c2cnc3c(c2)CN(C(=O)Nc2nc(-c4cccnc4)ccc2N)C3)CC1 [Compound 265]	500 to 5000	500 to 5000
CC(=O)N1CCC(C(=O)Nc2nn(-c3ccccc3)cc2N)CC1 [Compound 358]		> 5000
Cc1cnc(C(=O)Nc2nc(-c3ccc(F)cc3)ccc2N)s1 [Compound 226]		100 to 500
CN1CCC(COC(=O)Nc2nc(-c3cccnc3)ccc2N)CC1 [Compound 375]		> 5000
Nc1ccc(-c2ccc(F)cc2)nc1NC(=O)N1Cc2cc(CN3CC(F)(F)C3)cnc2C1 [Compound 271]	500 to 5000	500 to 5000
Nc1ccc(-n2cccn2)nc1NC(=O)N1CC2CN(Cc3ccccc3F)CC2C1 (centres unmarked) [Compound 177]		> 5000
Nc1ccc(-c2cccnc2)nc1NC(=O)N1Cc2ccc(CO)cc2C1 [Compound 395]	500 to 5000	> 5000
CN1CC(Cn2ncc3c2CN(C(=O)Nc2nc(-c4ccc(F)cc4)ccc2N)C3)C1 [Compound 244]		500 to 5000
Nc1ccc(-c2ccccc2)nc1NC(=O)N1CC2CN(C3COC3)CC2C1 (centres unmarked) [Compound 199]		> 5000
Nc1cn(-c2ccccc2)nc1NC(=O)N1CCN(C2COC2)CC1 [Compound 356]		> 5000
Nc1ccc(-c2ccccc2)nc1NC(=O)N1CCn2cncc2C1 [Compound 212]		> 5000
Nc1ccc(-c2ccc(F)cc2)nc1NC(=O)C1CC2CCC(C1)O2 (centres unmarked) [Compound 406]		> 5000
COc1cccc(CN2CCCC3(CCN(C(=O)Nc4nc(-c5ccc(F)cc5)ccc4N)C3)C2)c1 (centres unmarked) [Compound 222]		> 5000
Nc1cn(-c2ccccc2)nc1NC(=O)N1Cc2ccc(CO)cc2C1 [Compound 350]		500 to 5000
COCc1ccc2c(c1)CN(C(=O)Nc1nc(-c3cccnc3)ccc1N)C2 [Compound 393]		500 to 5000
CN(C1CCOC1)C1CC2CN(C(=O)Nc3nc(-c4ccc(F)cc4)ccc3N)CC2C1 (centres unmarked) [Compound 237]		> 5000
Nc1ccc(-c2ccco2)nc1NC(=O)N1CC2CC(N3CC(F)C3)CC2C1 (centres unmarked) [Compound 189]		> 5000
CN1CCN(c2ccc3c(c2)CN(C(=O)Nc2nn(-c4ccccc4)cc2N)C3)CC1 [Compound 352]		500 to 5000
Nc1ccc(-c2ccco2)nc1NC(=O)C1CN(Cc2ccccc2)C1 [Compound 198]		> 5000

Now from value to compound:

EC50 [1] [nM]	IC50 [2] [nM]	Compound
500 to 5000	500 to 5000	Nc1ccc(-c2ccc(F)cc2)nc1NC(=O)N1Cc2cncnc2C1 [Compound 277]
100 to 500	100 to 500	Cn1cc2c(n1)CN(C(=O)Nc1nc(-c3ccc(F)cc3)ccc1N)C2 [Compound 257]
> 5000	> 5000	Nc1ccc(-c2ccc(F)cc2)nc1NC(=O)N1C[C@@H]2[C@H](C1)[C@H]2NC1COC1 [Compound 267]
100 to 500	100 to 500	CC(C)Cc1cnc2c(c1)CN(C(=O)Nc1nc(-c3ccc(F)cc3)ccc1N)C2 [Compound 274]
500 to 5000	500 to 5000	Cn1ncc2c1CN(C(=O)Nc1nc(-c3ccc(F)cc3)ccc1N)C2 [Compound 258]
100 to 500	100 to 500	Nc1ccc(-c2ccc(F)cc2)nc1NC(=O)N1Cc2ccc(CN3CCCC3)cc2C1 [Compound 405]
100 to 500	100 to 500	CN(C)Cc1cnc2c(c1)CN(C(=O)Nc1nc(-c3ccc(F)cc3)ccc1N)C2 [Compound 154]
500 to 5000	100 to 500	Nc1ccc(-c2ccc(F)cc2)nc1NC(=O)N1Cc2ccncc2C1 [Compound 373]
100 to 500	100 to 500	Nc1ccc(-c2ccc(F)cc2)nc1NC(=O)N1Cc2cc(CN3CCC3)cnc2C1 [Compound 272]
500 to 5000	500 to 5000	COC[C@@H]1[C@H]2CN(C(=O)Nc3nc(-c4ccc(F)cc4)ccc3N)C[C@@H]12 [Compound 276]
> 5000	> 5000	CN1CCN(C[C@@H]2[C@H]3CN(C(=O)Nc4nc(-c5ccc(F)cc5)ccc4N)C[C@@H]23)CC1 [Compound 269]
100 to 500	100 to 500	CN1CCN(c2ccc3c(n2)CN(C(=O)Nc2nc(-c4ccc(F)cc4)ccc2N)C3)CC1 [Compound 391]
500 to 5000	100 to 500	CN1CCN(c2cnc3c(c2)CN(C(=O)Nc2nc(-c4ccc(F)cc4)ccc2N)C3)CC1 [Compound 159]
100 to 500	100 to 500	Nc1ccc(-c2ccc(F)cc2)nc1NC(=O)N1Cc2cc(CN3CC(F)C3)cnc2C1 [Compound 275]
	100 to 500	CC(O)c1ccc2c(c1)CN(C(=O)Nc1nc(-c3ccc(F)cc3)ccc1N)C2 (centres unmarked) [Compound 394]
	500 to 5000	COc1ccc(-c2ccc(N)c(NC(=O)N3Cc4ccncc4C3)n2)cc1 [Compound 173]
	500 to 5000	Nc1ccc(-c2ccc(OC(F)F)cc2)nc1NC(=O)N1CCCC1 [Compound 232]
	100 to 500	CN1CC(n2cc3c(n2)CN(C(=O)Nc2nc(-c4ccc(F)cc4)ccc2N)C3)C1 [Compound 247]
	100 to 500	Cc1cc2c(cn1)CN(C(=O)Nc1nc(-c3ccc(F)cc3)ccc1N)C2 [Compound 151]
	> 5000	Nc1ccc(-c2ccc(F)cc2)nc1NC(=O)N1CC2CC(N3CCOCC3)CC2C1 (centres unmarked) [Compound 181]
	500 to 5000	Nc1ccc(-c2ccc(F)cc2)nc1NC(=O)N1C[C@@H]2[C@@H](CO)[C@@H]2C1 [Compound 238]
	100 to 500	Nc1ccc(-c2ccc(F)cc2)nc1NC(=O)N1Cc2cnc(N3CCC3)cc2C1 [Compound 147]
	> 5000	CN(C1COC1)[C@H]1[C@@H]2CN(C(=O)Nc3nc(-c4ccc(F)cc4)ccc3N)C[C@@H]21 [Compound 262]
	100 to 500	Nc1ccc(-c2ccc(F)cc2)nc1NC(=O)N1Cc2cc(N3CCOCC3)cnc2C1 [Compound 158]
